Data as given in ChEMBL document CHEMBL4334471, “Discovery of 1,8-disubstituted-[1,2,3]triazolo[4,5-c]quinoline derivatives as a new class of Hippo signaling pathway inhibitors” (Bioorg Med Chem Lett, 2019).

Columns and labels:
[1] = target: AP2-associated protein kinase 1 (Homo sapiens) (UniProt Q2M2I8); experiment: Inhibition of human AAK1 assessed as residual activity at 10 uM using peptide as substrate incubated for 120 mins in presence of [gamma-33ATP] by scintillation counting based radiometry assay relative to control
Chain of AP2-associated protein kinase 1 (Homo sapiens) (Q2M2I8 whole entry, looked up): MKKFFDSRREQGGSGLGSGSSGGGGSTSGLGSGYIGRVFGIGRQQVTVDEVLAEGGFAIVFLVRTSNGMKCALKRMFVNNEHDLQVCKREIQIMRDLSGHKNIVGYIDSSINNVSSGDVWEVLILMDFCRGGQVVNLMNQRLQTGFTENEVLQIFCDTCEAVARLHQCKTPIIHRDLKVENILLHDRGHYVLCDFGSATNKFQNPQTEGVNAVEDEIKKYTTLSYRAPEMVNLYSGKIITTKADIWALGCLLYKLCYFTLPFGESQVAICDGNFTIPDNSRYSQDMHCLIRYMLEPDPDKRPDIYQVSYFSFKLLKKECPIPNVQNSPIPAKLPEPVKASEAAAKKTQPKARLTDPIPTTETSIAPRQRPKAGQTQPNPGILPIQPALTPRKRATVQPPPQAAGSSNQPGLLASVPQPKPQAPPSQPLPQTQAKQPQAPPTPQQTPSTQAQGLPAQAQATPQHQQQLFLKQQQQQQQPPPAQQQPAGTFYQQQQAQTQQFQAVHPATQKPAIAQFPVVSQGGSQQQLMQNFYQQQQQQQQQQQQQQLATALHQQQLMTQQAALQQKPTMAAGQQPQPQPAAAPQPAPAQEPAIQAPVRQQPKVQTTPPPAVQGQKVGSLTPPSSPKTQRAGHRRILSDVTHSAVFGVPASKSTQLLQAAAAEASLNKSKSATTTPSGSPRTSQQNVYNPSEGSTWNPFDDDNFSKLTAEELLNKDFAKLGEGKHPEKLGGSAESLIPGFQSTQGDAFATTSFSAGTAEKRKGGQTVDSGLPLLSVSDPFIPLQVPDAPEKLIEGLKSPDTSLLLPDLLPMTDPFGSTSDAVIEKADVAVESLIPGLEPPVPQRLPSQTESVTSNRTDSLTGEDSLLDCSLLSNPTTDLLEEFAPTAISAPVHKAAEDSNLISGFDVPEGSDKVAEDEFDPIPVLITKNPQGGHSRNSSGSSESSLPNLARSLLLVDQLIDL

[2] = target: Calcium/calmodulin-dependent protein kinase type 1G (Homo sapiens) (UniProt Q96NX5); experiment: Inhibition of recombinant full length human CaMKIgamma assessed as residual activity at 10 uM using KKLRRTLSFAEPG as substrate incubated for 40 mins in presence of [gamma-33ATP] by scintillation counting based radiometry assay relative to control
[3] = target: Calcium/calmodulin-dependent protein kinase type II subunit beta (Homo sapiens) (UniProt Q13554); experiment: Inhibition of recombinant human CaMK2beta (1 to 315 residues) assessed as residual activity at 10 uM using […] incubated for 40 mins in presence of [gamma-33ATP] by scintillation counting based radiometry assay relative to control
[4] = target: Calcium/calmodulin-dependent protein kinase type 1D (Homo sapiens) (UniProt Q8IU85); experiment: Inhibition of recombinant full length human CaMK1delta assessed as residual activity at 10 uM using […] incubated for 40 mins in presence of [gamma-33ATP] by scintillation counting based radiometry assay relative to control
[5] = target: Calcium/calmodulin-dependent protein kinase type II subunit delta (Homo sapiens) (UniProt Q13557); experiment: Inhibition of recombinant full length human CaMK2delta assessed as residual activity at 10 uM using […] incubated for 40 mins in presence of [gamma-33ATP] by scintillation counting based radiometry assay relative to control
[6] = target: Cyclin-dependent kinase-like 1 (Homo sapiens) (UniProt Q00532); experiment: Inhibition of recombinant full length human CDKL1 assessed as residual activity at 10 uM using RRRFRPASPLRGP as substrate incubated for 120 mins in presence of [gamma-33ATP] by scintillation counting based radiometry assay relative to control
[7] = target: Casein kinase I isoform gamma-2 (Homo sapiens) (UniProt P78368); experiment: Inhibition of recombinant human CK1gamma2 (18 to end residues) assessed as residual activity at 10 uM using KRRRALS(p)VASLPGL as substrate incubated for 40 mins in presence of [gamma-33ATP] by scintillation counting based radiometry assay relative to control
Chain of Casein kinase I isoform gamma-2 (Homo sapiens) (P78368 whole entry, looked up, canonical isoform): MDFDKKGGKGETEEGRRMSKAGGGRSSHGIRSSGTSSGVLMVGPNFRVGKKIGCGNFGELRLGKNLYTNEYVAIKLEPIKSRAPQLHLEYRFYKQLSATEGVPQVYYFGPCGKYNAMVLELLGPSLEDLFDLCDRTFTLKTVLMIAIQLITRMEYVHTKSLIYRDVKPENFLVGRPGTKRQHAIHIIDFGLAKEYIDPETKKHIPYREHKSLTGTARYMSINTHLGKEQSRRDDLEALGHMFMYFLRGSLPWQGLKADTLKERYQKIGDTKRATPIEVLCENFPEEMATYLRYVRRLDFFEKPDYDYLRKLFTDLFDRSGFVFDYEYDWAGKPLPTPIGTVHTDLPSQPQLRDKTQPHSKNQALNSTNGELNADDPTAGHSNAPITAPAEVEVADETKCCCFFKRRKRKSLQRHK

[8] = target: Serine/threonine-protein kinase 35 (Homo sapiens) (UniProt Q8TDR2); experiment: Inhibition of recombinant full length human CLIK1 assessed as residual activity at 10 uM using RSRSRSRSRSRS as substrate incubated 40 mins in presence of [gamma-33ATP] by scintillation counting based radiometry assay relative to control
Chain of Serine/threonine-protein kinase 35 (Homo sapiens) (Q8TDR2 whole entry): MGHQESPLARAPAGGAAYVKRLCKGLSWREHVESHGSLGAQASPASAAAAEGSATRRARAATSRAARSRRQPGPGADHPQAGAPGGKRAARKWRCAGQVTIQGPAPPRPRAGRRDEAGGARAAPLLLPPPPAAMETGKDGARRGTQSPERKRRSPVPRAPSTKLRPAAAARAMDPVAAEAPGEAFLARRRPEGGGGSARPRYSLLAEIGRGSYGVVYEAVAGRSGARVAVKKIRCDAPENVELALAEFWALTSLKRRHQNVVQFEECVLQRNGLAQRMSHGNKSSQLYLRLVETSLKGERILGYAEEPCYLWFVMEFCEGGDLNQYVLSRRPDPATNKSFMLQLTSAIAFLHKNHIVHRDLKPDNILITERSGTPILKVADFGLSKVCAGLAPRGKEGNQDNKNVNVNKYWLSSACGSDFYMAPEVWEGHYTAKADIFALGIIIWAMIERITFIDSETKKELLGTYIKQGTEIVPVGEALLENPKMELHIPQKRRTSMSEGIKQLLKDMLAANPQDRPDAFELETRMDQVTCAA

[9] = target: Ephrin type-A receptor 3 (Homo sapiens) (UniProt P29320); experiment: Inhibition of recombinant human EphA3 (578 to end residues) assessed as residual activity at 10 uM using poly(Glu, Tyr) 4:1 as substrate at 40 mins in presence of [gamma-33ATP] by scintillation counting based radiometry assay relative to control
[10] = target: Homeodomain-interacting protein kinase 2 (Homo sapiens) (UniProt Q9H2X6); experiment: Inhibition of human HIPK2 (165 to 564 residues) assessed as residual activity at 10 uM using myelin basic protein as substrate after 40 mins by [gamma-33ATP] radiometric assay relative to control
[11] = target: Mitogen-activated protein kinase kinase kinase kinase 1 (Homo sapiens) (UniProt Q92918); experiment: Inhibition of human HPK1 (1 to 346 residues) assessed as residual activity at 10 uM using myelin basic protein as substrate after 40 mins by [gamma-33ATP] radiometric assay relative to control
[12] = target: Mitogen-activated protein kinase 1 (Homo sapiens) (UniProt P28482); experiment: Inhibition of recombinant full length human MAPK1 assessed as residual activity at 10 uM using myelin basic protein as substrate incubated for 40 mins in presence of [gamma-33ATP by scintillation counting based radiometry assay relative to control
[13] = tested on: Serine/threonine-protein kinase Nek4 (Homo sapiens), P51957 [P225A]; experiment: Inhibition of recombinant full-length human NEK4 P225A mutant assessed as residual activity at 10 uM using myelin basic protein as substrate measured after 40 mins in presence of [gamma33P]ATP by scintillation counting based radiometry assay relative to control
Chain of Serine/threonine-protein kinase Nek4 (Homo sapiens), P51957 [P225A] (P51957 whole entry P225A, the tested form may be a part): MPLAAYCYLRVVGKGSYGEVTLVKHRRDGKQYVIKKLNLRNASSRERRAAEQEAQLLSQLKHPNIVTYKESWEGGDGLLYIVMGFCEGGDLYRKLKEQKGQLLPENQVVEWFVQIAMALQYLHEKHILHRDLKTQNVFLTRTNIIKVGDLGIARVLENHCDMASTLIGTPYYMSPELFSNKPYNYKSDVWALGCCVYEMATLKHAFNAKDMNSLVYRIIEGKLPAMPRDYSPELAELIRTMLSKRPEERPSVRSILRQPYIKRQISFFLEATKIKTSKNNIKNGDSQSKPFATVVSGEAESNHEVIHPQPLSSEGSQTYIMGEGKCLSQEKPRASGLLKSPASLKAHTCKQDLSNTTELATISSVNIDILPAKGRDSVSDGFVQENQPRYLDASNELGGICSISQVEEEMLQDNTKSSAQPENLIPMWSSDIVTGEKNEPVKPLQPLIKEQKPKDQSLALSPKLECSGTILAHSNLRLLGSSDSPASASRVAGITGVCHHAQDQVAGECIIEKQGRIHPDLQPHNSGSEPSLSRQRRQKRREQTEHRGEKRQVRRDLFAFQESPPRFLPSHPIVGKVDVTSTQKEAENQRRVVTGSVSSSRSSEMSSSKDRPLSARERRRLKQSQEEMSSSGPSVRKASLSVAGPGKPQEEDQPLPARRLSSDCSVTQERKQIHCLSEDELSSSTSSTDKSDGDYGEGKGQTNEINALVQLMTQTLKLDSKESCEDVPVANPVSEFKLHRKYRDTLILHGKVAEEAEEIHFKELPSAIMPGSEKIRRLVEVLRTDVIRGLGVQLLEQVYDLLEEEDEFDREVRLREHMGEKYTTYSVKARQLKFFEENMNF

[14] = species: Homo sapiens; experiment: Inhibition of recombinant human Plk4 S34T mutant (1 to 273 residues) assessed as residual activity at 10 uM using casein as substrate incubated for 40 mins in presence of [gamma33P]ATP by scintillation counting based radiometry assay relative to control
[15] = target: Mitogen-activated protein kinase 14 (Homo sapiens) (UniProt Q16539); experiment: Inhibition of recombinant human full length SAPK2a assessed as residual activity at 10 uM using myelin basic protein as substrate incubated for 40 mins in presence of [gamma33P]ATP by scintillation counting based radiometry assay relative to control
Chain of Mitogen-activated protein kinase 14 (Homo sapiens) (Q16539 whole entry): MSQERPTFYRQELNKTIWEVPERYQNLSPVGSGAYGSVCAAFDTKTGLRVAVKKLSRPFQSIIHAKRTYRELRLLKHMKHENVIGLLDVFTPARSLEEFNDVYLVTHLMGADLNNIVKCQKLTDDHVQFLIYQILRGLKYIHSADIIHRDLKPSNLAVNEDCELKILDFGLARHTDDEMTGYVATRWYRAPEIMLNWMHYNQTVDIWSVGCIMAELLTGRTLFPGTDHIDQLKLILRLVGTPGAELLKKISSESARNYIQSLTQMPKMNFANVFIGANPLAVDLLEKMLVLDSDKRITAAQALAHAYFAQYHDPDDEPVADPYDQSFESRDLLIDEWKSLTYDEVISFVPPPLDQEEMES

[16] = target: Mitogen-activated protein kinase 13 (Homo sapiens) (UniProt O15264); experiment: Inhibition of recombinant human full length SAPK4 assessed as residual activity at 10 uM using myelin basic protein as substrate incubated for 40 mins in presence of [gamma33P]ATP by scintillation counting based radiometry assay relative to control
[17] = target: Proto-oncogene tyrosine-protein kinase Src (Homo sapiens) (UniProt P12931); experiment: Inhibition of recombinant human SRC (1 to 530 residues) assessed as residual activity at 10 uM using GGEEEEYFELVKK as substrate incubated for 40 mins in presence of [gamma33P]ATP by scintillation counting based radiometry assay relative to control
[18] = target: Serine/threonine-protein kinase 33 (Homo sapiens) (UniProt Q9BYT3); experiment: Inhibition of recombinant full-length human STK33 assessed as residual activity at 10 uM using myelin basic protein as substrate incubated for 40 mins in presence of [gamma33P]ATP by scintillation counting based radiometry assay relative to control
[19] = tested on: Dual specificity protein kinase TTK (Homo sapiens), P33981 [S389A]; experiment: Inhibition of recombinant full-length human TTK S389A mutant assessed as residual activity at 10 uM using MBP as substrate incubated for 40 mins in presence of [gamma33P]ATP by scintillation counting based radiometry assay relative to control
Chain of Dual specificity protein kinase TTK (Homo sapiens), P33981 [S389A] (P33981 whole entry S389A): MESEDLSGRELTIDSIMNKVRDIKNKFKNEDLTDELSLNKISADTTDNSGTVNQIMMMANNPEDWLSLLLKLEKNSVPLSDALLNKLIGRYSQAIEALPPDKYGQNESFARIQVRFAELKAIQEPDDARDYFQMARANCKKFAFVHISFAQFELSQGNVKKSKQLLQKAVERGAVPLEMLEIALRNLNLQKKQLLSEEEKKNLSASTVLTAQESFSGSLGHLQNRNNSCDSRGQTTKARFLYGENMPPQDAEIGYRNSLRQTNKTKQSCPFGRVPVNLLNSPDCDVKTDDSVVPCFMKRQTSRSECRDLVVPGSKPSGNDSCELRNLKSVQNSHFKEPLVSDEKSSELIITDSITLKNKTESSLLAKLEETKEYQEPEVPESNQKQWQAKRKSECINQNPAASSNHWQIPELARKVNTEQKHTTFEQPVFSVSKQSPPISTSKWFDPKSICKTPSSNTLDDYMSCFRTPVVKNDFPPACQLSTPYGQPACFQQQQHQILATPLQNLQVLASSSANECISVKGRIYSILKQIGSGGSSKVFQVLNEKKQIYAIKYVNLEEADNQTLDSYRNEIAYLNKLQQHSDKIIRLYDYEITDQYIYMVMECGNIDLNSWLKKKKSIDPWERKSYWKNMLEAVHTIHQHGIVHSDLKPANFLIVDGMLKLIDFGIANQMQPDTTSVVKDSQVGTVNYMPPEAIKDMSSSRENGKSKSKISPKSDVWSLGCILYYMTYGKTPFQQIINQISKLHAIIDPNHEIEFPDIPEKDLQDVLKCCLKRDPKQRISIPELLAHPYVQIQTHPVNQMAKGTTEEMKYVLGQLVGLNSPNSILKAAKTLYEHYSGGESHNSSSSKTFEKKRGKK

[20] = target: Tyrosine-protein kinase Yes (Homo sapiens) (UniProt P07947); experiment: Inhibition of recombinant full-length human Yes assessed as residual activity at 10 uM using poly(Glu, Tyr) 4:1 as substrate incubated for 40 mins in presence of [gamma33P]ATP by scintillation counting based radiometry assay relative to control
Chain of Tyrosine-protein kinase Yes (Homo sapiens) (P07947 2-543 limits assumed): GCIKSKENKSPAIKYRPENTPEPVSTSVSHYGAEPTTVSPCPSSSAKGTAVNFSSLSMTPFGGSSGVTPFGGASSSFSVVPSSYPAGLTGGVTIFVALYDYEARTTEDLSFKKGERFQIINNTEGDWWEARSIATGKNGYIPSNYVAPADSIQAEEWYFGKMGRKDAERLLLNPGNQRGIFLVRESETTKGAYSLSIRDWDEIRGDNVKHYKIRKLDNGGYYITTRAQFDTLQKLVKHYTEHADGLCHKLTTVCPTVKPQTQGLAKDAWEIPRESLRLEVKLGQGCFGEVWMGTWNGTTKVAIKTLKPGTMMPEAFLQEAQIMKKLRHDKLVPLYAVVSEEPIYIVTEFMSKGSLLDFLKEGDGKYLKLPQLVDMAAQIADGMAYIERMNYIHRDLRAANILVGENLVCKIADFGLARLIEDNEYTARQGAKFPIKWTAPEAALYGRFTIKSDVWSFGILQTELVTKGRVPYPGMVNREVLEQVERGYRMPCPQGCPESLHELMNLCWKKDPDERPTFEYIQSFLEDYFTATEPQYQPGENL

[21] = target: Serine/threonine-protein kinase 3 (Homo sapiens, UniProt Q13188); experiment: Inhibition of recombinant human MST2 (2 to end residues) assessed as residual activity using myelin basic protein as substrate measured after 40 mins in presence of [gamma33P]ATP by scintillation counting based radiometry assay
Chain of Serine/threonine-protein kinase 3 (Q13188 whole entry): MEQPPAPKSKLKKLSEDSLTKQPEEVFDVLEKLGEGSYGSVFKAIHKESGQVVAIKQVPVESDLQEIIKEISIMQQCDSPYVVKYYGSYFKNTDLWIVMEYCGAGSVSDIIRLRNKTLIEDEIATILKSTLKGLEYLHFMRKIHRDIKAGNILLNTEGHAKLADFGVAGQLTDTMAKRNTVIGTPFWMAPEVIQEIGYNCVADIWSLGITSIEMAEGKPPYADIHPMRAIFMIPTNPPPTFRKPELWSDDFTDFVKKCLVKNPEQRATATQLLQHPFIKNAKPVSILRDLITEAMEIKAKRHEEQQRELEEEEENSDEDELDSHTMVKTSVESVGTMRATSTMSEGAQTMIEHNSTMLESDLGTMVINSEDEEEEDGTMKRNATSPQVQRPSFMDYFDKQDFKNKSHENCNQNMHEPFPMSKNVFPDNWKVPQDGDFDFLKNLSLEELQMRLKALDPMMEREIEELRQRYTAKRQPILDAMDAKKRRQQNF

Question: Which Activity [1] does the source give for `C[C@@H](c1ccccc1)n1nnc2cnc3ccc(-c4cnc5[nH]ccc5c4)cc3c21` here?
Answer: 78%

Question: What about the Activity [2] of the same compound?
Answer: 47%

Question: And the Activity [3]?
Answer: 85%

Question: What about the Activity [4] of the same compound?
Answer: 43%

Question: What about the Activity [5] of the same compound?
Answer: 68%

Question: What about the Activity [6] of the same compound?
Answer: 79%

Question: And the Activity [7]?
Answer: 73%

Question: And the Activity [8]?
Answer: 75%

Question: What about the Activity [9] of the same compound?
Answer: 80%

Question: And the Activity [10]?
Answer: 93%

Question: And the Activity [11]?
Answer: 84%

Question: What about the Activity [12] of the same compound?
Answer: 100%

Question: And the Activity [13]?
Answer: 20%

Question: And the Activity [14]?
Answer: 82%

Question: What about the Activity [15] of the same compound?
Answer: 105%

Question: What about the Activity [16] of the same compound?
Answer: 97%

Question: And the Activity [17]?
Answer: 15%

Question: What about the Activity [18] of the same compound?
Answer: 91%

Question: What about the Activity [19] of the same compound?
Answer: 2%

Question: And the Activity [20]?
Answer: 3%

Question: What about the IC50 [21] of the same compound?
Answer: > 10 µM
